In ChEMBL document CHEMBL4813925, “Antibacterial Drimane Sesquiterpenes from Aspergillus ustus” (J Nat Prod, 2021):
In brackets after ≈: the same amount, converted by molar mass. Activity calls are given as the source filed them. The rule behind the calls is not given here.

What was measured:
[1] = system: Staphylococcus aureus; experiment: Synergistic antibacterial activity against multidrug-resistant Staphylococcus aureus ATCC BAA-44 assessed as coefficient of drug interaction in presence of ustusoic-acidB; assay type: functional
[2] = system: Enterococcus faecium; experiment: Antibacterial activity against vancomycin-resistant Enterococcus faecium ATCC 700221 assessed as bacterial growth inhibition by CLSI protocol based microbroth dilution method; assay type: functional
[3] = system: Staphylococcus aureus; experiment: Synergistic antibacterial activity against multidrug-resistant Staphylococcus aureus ATCC BAA-44 assessed as bacterial growth inhibition in presence of Stromemycin; assay type: functional
[4] = system: Bacillus subtilis; experiment: Synergistic antibacterial activity against Bacillus subtilis ATCC 49343 assessed as bacterial growth inhibition in presence of Stromemycin; assay type: functional
[5] = system: HCT-116; experiment: Cytotoxicity against human HCT-116 cells by MTT assay; assay type: cell-based
[6] = system: Staphylococcus aureus; experiment: Antibacterial activity against multidrug-resistant Staphylococcus aureus ATCC BAA-44 assessed as bacterial growth inhibition by CLSI protocol based microbroth dilution method; assay type: functional
[7] = system: Enterococcus faecium; experiment: Synergistic antibacterial activity against vancomycin-resistant Enterococcus faecium ATCC 700221 assessed as bacterial growth inhibition in presence of Stromemycin; assay type: functional
[8] = system: Bacillus subtilis; experiment: Antibacterial activity against Bacillus subtilis ATCC 49343 assessed as bacterial growth inhibition by CLSI protocol based microbroth dilution method; assay type: functional
[9] = system: Bacillus subtilis; experiment: Synergistic antibacterial activity against Bacillus subtilis ATCC 49343 assessed as coefficient of drug interaction in presence of ustusoic-acidB; assay type: functional
[10] = system: Enterococcus faecium; experiment: Synergistic antibacterial activity against vancomycin-resistant Enterococcus faecium ATCC 700221 assessed as coefficient of drug interaction in presence of ustusoic-acidB; assay type: functional
[11] = system: Candida albicans; experiment: Antifungal activity against Candida albicans ATCC 90027 assessed as fungal growth inhibition by CLSI protocol based microbroth dilution method; assay type: functional, organism-based
[12] = system: Staphylococcus aureus; experiment: Synergistic antibacterial activity against multidrug-resistant Staphylococcus aureus ATCC BAA-44 assessed as bacterial growth inhibition in presence of ustusoic-acidB; assay type: functional
[13] = system: Bacillus subtilis; experiment: Synergistic antibacterial activity against Bacillus subtilis ATCC 49343 assessed as bacterial growth inhibition in presence of ustusoic-acidB; assay type: functional
[14] = system: Enterococcus faecium; experiment: Synergistic antibacterial activity against vancomycin-resistant Enterococcus faecium ATCC 700221 assessed as bacterial growth inhibition in presence of ustusoic-acidB; assay type: functional
[15] = system: Staphylococcus aureus; experiment: Synergistic antibacterial activity against multidrug-resistant Staphylococcus aureus ATCC BAA-44 assessed as coefficient of drug interaction in presence of Stromemycin; assay type: functional
[16] = system: Enterococcus faecium; experiment: Synergistic antibacterial activity against vancomycin-resistant Enterococcus faecium ATCC 700221 assessed as coefficient of drug interaction in presence of Stromemycin; assay type: functional
[17] = system: Bacillus subtilis; experiment: Synergistic antibacterial activity against Bacillus subtilis ATCC 49343 assessed as coefficient of drug interaction in presence of Stromemycin; assay type: functional

For `C/C=C/C=C/C=C/C(=O)O[C@@H]1C=C(C=O)[C@](O)(C(=O)O)[C@@]2(C)CCCC(C)(C)[C@H]12`, the CI [1] was 0.00014, the MIC [2] was 67 µg/mL (≈ 166 µM) and the MIC [3] was 64 µg/mL. For the same molecule, the MIC [4] was 8 µg/mL, the Activity [5] was “Non-Toxic” and the MIC ([6]; read-out: MIC) was greater than 128 µg/mL. The MIC [7] was 32 µg/mL, the MIC [8] was 38 µg/mL (≈ 94.4 µM) and the CI [9] was 0.0009. The CI [10] was 0.00013 and the Activity [11] was “inactive”.
`CN[C@H](CC(C)C)C(=O)N[C@H]1C(=O)N[C@@H](CC(N)=O)C(=O)N[C@H]2C(=O)N[C@H]3C(=O)N[C@H](C(=O)N[C@H](C(=O)O)c4cc(O)cc(O)c4-c4cc3ccc4O)[C@H](O)c3ccc(c(Cl)c3)Oc3cc2cc(c3O[C@@H]2O[C@H](CO)[C@@H](O)[C@H](O)[C@H]2O[C@H]2C[C@](C)(N)[C@H](O)[C@H](C)O2)Oc2ccc(cc2Cl)[C@H]1O` [VANCOMYCIN] was tested, and the MIC ([6]; read-out: MIC100) was 125 µg/mL (≈ 86.3 µM).
For `CCC/C=C/C=C/CCc1cc(OC(=O)c2c(CC/C=C/C=C/CCC)cc(O)c([C@@H]3O[C@H](CO)[C@@H](O)[C@H](O)[C@H]3O)c2O)cc(O)c1C(=O)O`, the MIC [12] was 64 µg/mL, the MIC [2] was greater than 128 µg/mL and the MIC [13] was 8 µg/mL. For the same molecule, the Activity [5] was “Non-Toxic”, the MIC [14] was 32 µg/mL and the MIC ([6]; read-out: MIC) was greater than 128 µg/mL. For the same molecule, the CI [15] was 0.00014, the CI [16] was 0.00013 and the MIC [8] was 64 µg/mL (≈ 91.8 µM). For the same molecule, the Activity [11] was “inactive” and the CI [17] was 0.0009.
For `O=C(N[C@H](CO)[C@H](O)c1ccc([N+](=O)[O-])cc1)C(Cl)Cl` [CHLORAMPHENICOL], the MIC99 [8] was 125 µg/mL (≈ 387 µM).
Work on `C/C=C/C=C/C=C/C(=O)O[C@@H]1C=C(CO)[C@](O)(C(=O)O)[C@@]2(C)CCCC(C)(C)[C@H]12` yielded an MIC [2] of 128 µg/mL (≈ 316 µM), an MIC ([6]; read-out: MIC) greater than 128 µg/mL and an MIC [8] of 64 µg/mL (≈ 158 µM).
In the case of `O=C1CN(/N=C/c2ccc([N+](=O)[O-])o2)C(=O)N1` [NITROFURANTOIN], the MIC99 [2] is reported as 125 µg/mL (≈ 525 µM).
